According to US20200179428A1, “CYCLIC PHOSPHATE SUBSTITUTED NUCLEOSIDE DERIVATIVES AND METHODS OF USE THEREOF FOR THE TREATMENT OF VIRAL DISEASES” (priority 2016, published 2020):
Read-outs that look alike come from different tables or passages of the source.

What was measured:
[1] = Cytotoxicity MTS assay (CellTiter 96 Aqueous One Solution) in replicon cells; format: cell-based; details: HCV replicon cells (1b-Con1); EDU; read-out: CC50 (EDU) Range
Procedure: (§1) To measure cell-based anti-HCV activity of the compounds of the present invention, replicon cells (1b-Con1) are seeded at 5000 cells/well in 96-well plates one day prior to treatment with a compound of the invention. Various concentrations of a test compound of the invention in DMSO are then added to the replicon cells, with the final concentration of DMSO at 0.5% and fetal bovine serum at 10% in the assay media. Cells are harvested three days post-dosing, and the replicon RNA level is determined using real-time RT-PCR (Taqman assay) with GAPDH RNA as endogenous control. EC50 values are calculated from experiments with 10 serial twofold dilutions of the inhibitor in triplicate. To measure cytotoxicity in replicon cells of an inhibitor, an MTS assay is performed according to the manufacturer's protocol for CellTiter 96 Aqueous One Solution Cell Proliferation Assay (Promega, Cat # G3580) three days post dosing on cells treated identically as in replicon activity assays. […] Cytotoxicity in other types of cells may be measured using the same MTS protocol.

replicon cells (1b-Con1) = test: Replicon activity assay (replicon RNA level by real-time RT-PCR, Taqman); format: cell-based; details: HCV replicon genotype 1b, read-out: EC50 (1b) Range
Procedure: as §1

Row | SMILES | CC50 at 3 days [1] | EC50 (replicon cells (1b-Con1); Hepatitis C virus) | EC50 (replicon cells (1b-Con1))
1 | C#C[C@]1(C)[C@@H]2O[P@@](=O)(OCC[C@H](OC)C(=O)OC(C)C)OC[C@H]2O[C@H]1n1ccc(=O)[nH]c1=O [Compound 56A] | > 50 µM | 0.25 to 1 µM | 
2 | C#C[C@@]1(O)[C@@H]2O[P@](=O)(OCCC(C(=O)OC(C)C)C(=O)OC(C)C)OC[C@H]2O[C@H]1n1ccc(=O)[nH]c1=O [Compound 59B] | > 50 µM | ≤ 0.25 µM | 
3 | CC(C)OC(=O)C(CCO[P@@]1(=O)OC[C@H]2O[C@@H](n3cnc4c(N)ncnc43)[C@](C)(Cl)[C@@H]2O1)C(=O)OC(C)C [Compound 70A] | > 50 µM | 0.25 to 1 µM | 
4 | CC(C)OC(=O)COCCO[P@@]1(=O)OC[C@H]2O[C@@H](n3ccc(=O)[nH]c3=O)[C@](C)(N)[C@@H]2O1 [Compound 69A] | > 50 µM | > 10 µM | 
5 | C#C[C@]1(C)[C@@H]2O[P@@](=O)(OCC(CC(=O)OC(C)C)N(C)C(=O)OC(C)(C)C)OC[C@H]2O[C@H]1n1ccc(=O)[nH]c1=O (some centres unmarked) [Compound 74A1] | > 50 µM | > 10 µM | 
6 | CC(C)OC(=O)C(C)CCOP1(=O)OC[C@H]2O[C@@H](n3ccc(=O)[nH]c3=O)[C@](C)(Cl)[C@@H]2O1 (some centres unmarked) [Compound 39A] | > 50 µM | ≤ 0.25 µM | 
7 | C#C[C@]1(C)[C@@H]2O[P@](=O)(OC[C@@H](CC(=O)OC(C)C)OC)OC[C@H]2O[C@H]1n1ccc(=O)[nH]c1=O [Compound 62B] | > 50 µM | > 10 µM | 
8 | CC(C)OC(=O)C(C)CCCO[P@@]1(=O)OC[C@H]2O[C@@H](n3ccc(=O)[nH]c3=O)[C@](C)(N)[C@@H]2O1 (some centres unmarked) [Compound 34A] | > 50 µM | > 10 µM | 
9 | CO[C@H](CO[P@]1(=O)OC[C@H]2O[C@@H](n3ccc(=O)[nH]c3=O)[C@](C)(N)[C@@H]2O1)[C@@H](OC)C(=O)OC(C)C [Compound 48B] | > 50 µM | > 10 µM | 
10 | CC(C)OC(=O)CC(F)(F)CO[P@]1(=O)OC[C@H]2O[C@@H](n3ccc(=O)[nH]c3=O)[C@](C)(N)[C@@H]2O1 [Compound 49B] | < 50 µM | 1 to 10 µM | 
11 | C#C[C@]1(C)[C@@H]2O[P@@](=O)(OC[C@H](CC(=O)OC(C)C)OC)OC[C@H]2O[C@H]1n1ccc(=O)[nH]c1=O [Compound 60A] | > 50 µM | > 10 µM | 
12 | CC(=O)O[C@H](C(=O)OC(C)C)[C@@H](CO[P@@]1(=O)OC[C@H]2O[C@@H](n3ccc(=O)[nH]c3=O)[C@](C)(N)[C@@H]2O1)OC(C)=O [Compound 53A] |  | > 10 µM | 
13 | CC(C)OC(=O)[C@H](C)CCOP1(=O)OC[C@@]2(F)O[C@@H](n3ccc(=O)[nH]c3=O)[C@](C)(F)[C@@H]2O1 (some centres unmarked) [Compound 87A] |  | ≤ 0.25 µM | 
14 | CC(C)OC(=O)[C@@H](C)CCO[P@]1(=O)OC[C@H]2O[C@@H](n3ccc4c(N)ncnc43)[C@](C)(Cl)[C@@H]2O1 [Compound 80B] |  | 1 to 10 µM | 
15 | CC(=O)O[C@H](CO[P@@]1(=O)OC[C@H]2O[C@@H](n3ccc(=O)[nH]c3=O)[C@](C)(N)[C@@H]2O1)CC(=O)OC(C)C [Compound 52A] |  | > 10 µM | 
16 | CC(=O)O[C@H](CO[P@]1(=O)OC[C@H]2O[C@@H](n3ccc(=O)[nH]c3=O)[C@](C)(N)[C@@H]2O1)CC(=O)OC(C)C [Compound 52B] |  | > 10 µM | 
17 | CC(C)OC(=O)[C@@H](C)CCO[P@@]1(=O)OC[C@H]2O[C@@H](n3ccc4c(N)ncnc43)[C@](C)(Cl)[C@@H]2O1 [Compound 80A] |  | > 10 µM | 
18 | CC(C)OC(=O)[C@@H](C)CCO[P@@]1(=O)OC[C@H]2O[C@@H](n3cc(F)c4c(N)ncnc43)[C@](C)(Cl)[C@@H]2O1 [Compound 82A] |  | > 10 µM | 
19 | CCC(CCO[P@@]1(=O)OC[C@H]2O[C@@H](n3ccc(=O)[nH]c3=O)[C@](C)(N)[C@@H]2O1)C(=O)OC1CCCC1 (some centres unmarked) [Compound 25A] |  | > 10 µM | 
20 | CCC(CCO[P@]1(=O)OC[C@H]2O[C@@H](n3ccc(=O)[nH]c3=O)[C@](C)(N)[C@@H]2O1)C(=O)OC1CCCC1 (some centres unmarked) [Compound 25B] |  | > 10 µM | 
21 | C#C[C@]1(C)[C@@H]2O[P@@](=O)(OC[C@H](CC(=O)OC(C)C)OC(C)=O)OC[C@H]2O[C@H]1n1ccc(=O)[nH]c1=O [Compound 55A] |  | > 10 µM | 
22 | C#C[C@]1(C)[C@@H]2O[P@](=O)(OC[C@H](CC(=O)OC(C)C)OC(C)=O)OC[C@H]2O[C@H]1n1ccc(=O)[nH]c1=O [Compound 55B] |  | > 10 µM | 
23 | CC(C)OC(=O)[C@H](C)CCO[P@]1(=O)OC[C@H]2O[C@@H](n3cc(F)c4c(N)ncnc43)[C@](C)(Cl)[C@@H]2O1 [Compound 82B] |  |  | > 10 µM
24 | CC(C)OC(=O)[C@H](C)CCO[P@@]1(=O)OC[C@H]2O[C@@H](n3cc(F)c4c(N)ncnc43)[C@](C)(Cl)[C@@H]2O1 [Compound 81A] |  | > 10 µM | 
